Measured values reported in patent publication US20190242874A1, “HUMAN EPITHELIAL CELL LINE FOR 3-D MODELIZING OF CANCER AND TREATMENT THEREOF” (GALDERMA RESEARCH & DEVELOPMENT, priority 2011, published 2019).

How the values were obtained:
[1] = system: KNBCCS6 E6/E7 immortalized keratinocytes; assay: Organotypic skin reconstruction: epidermal invasion of KNBCCS6 E6/E7 keratinocytes into dermal equivalent of NBCCS6 fibroblasts (histology); assay type: cell-based, human; conditions: 10 mM inhibitor, 0.1% DMSO, added 24 hrs before raising at air-liquid interface; compared with FIG. 4A control (FIG. 4B, 4C)
Description: Organotypic skin reconstruction using KNBCCS E6/E7 was performed using standard protocols as described in (Bernerd et al., 2001). In brief 10^6 NBCCS6 primary fibroblasts cultured in standard culture medium as described above were embeded in a bovine collagen I lattice. After contraction (48 hrs) lattices were fixed on platic using a collagen glue, KNBCCS6 were then seeded (50 000 cells per lattice) within a stainless ring, left for 6 days in immersion; the day 6) before emersion (day 7), mounts were treated with appropriate concentration of SHH:PTCH pathway inhibitor with a final a 0.1% DMSO concentration until the end of experiment. Control cultures were treated with 0.1% DMSO. After 7 days of emersion at air-liquid interface, cultures were harvested for subsequent analyses including histology and assessment of tacer/reporter gene activity. (FIG. 3 and FIG. 4)
FIGS. 4B, 4C show the same as FIG. 4A, except that organotypic skin cultures were grown 24 hrs before being raised at air-liquid interface in the presence ce of […] of GDC-0449 (B) or […] (SANT1) SHH/PTCH pathway inhibitors.

[2] = system: SHH/PTCH signaling pathway; assay: Response of the immortalized keratinocyte cell line to SHH/PTCH pathway agonist and antagonists; assay type: cell-based, human; conditions: conclusion statement; no concentration given
Description: Purmorphamine (SMO agonist) and GDC-0449 (SMO antagonist) were diluted in DMSO at stock concentrations of 50 mM and 10 mM, respectively. To avoid side effects and toxicity, the final concentration of DMSO was fixed to 0.1% DMSO.
Theses cells can be expanded in a simple defined medium and they can grow easily due to immortalization. This tool is 3D organotypic culture system to evaluate the efficacy of anti-tumoral molecules specifically targeting inappropriate activation of the SHH/PTCH pathway occurring in BCC but also in numerous non BCC cancers including other cancer implicating inappropriate activation of the SHH/PTCH pathway. Assessment of inhibitor efficacy is applicable in the long term by skin regeration in vivo using animal vector including the mouse or the mini pig sytems.

| Compound | size and frequency of epidermal invasion [1] | effect on SHH/PTCH signaling pathway in immortalized human keratinocyte cell line [2] |
| --- | --- | --- |
| CS(=O)(=O)c1ccc(C(=O)Nc2ccc(Cl)c(-c3ccccn3)c2)c(Cl)c1 [GDC-0449] | substantially decreased | inhibition of the activation |
| Cc1nn(-c2ccccc2)c(C)c1/C=N/N1CCN(Cc2ccccc2)CC1 [SANT1] | substantially decreased | inhibition of the activation |
| c1ccc2c(Oc3nc(Nc4ccc(N5CCOCC5)cc4)c4ncn(C5CCCCC5)c4n3)cccc2c1 [purmorphamine, Purmorphamine] | – | activation |
